Legend:
Pyrenophora teres = Pyrenophora teres / barley / leaf disc preventative (net blotch); format: in vivo; conditions: foliar, barley leaf segments cv. Hasso, inoculated 2 days after application, assessed 5-7 days after application, compared to untreated control
Experimental: Example B12: Pyrenophora teres/Barley/Leaf Disc Preventative (Net Blotch) Barley leaf segments cv. Hasso are placed on agar in a multiwell plate (24-well format) and sprayed with the formulated test compound diluted in water. The leaf segments are inoculated with a spore suspension of the fungus 2 days after application. The inoculated leaf segments are incubated at 20° C. and 65% relative humidity under a light regime of 12 h light/12 h darkness in a climate cabinet and the activity of a compound is assessed as disease control compared to untreated when an appropriate level of disease damage appears in untreated check leaf segments (5-7 days after application).

[1] = tested on: Botryotinia fuckeliana (Botrytis cinerea); test: Botryotinia fuckeliana (Botrytis cinerea) / liquid culture (gray mould); format: cell-based; conditions: liquid culture (Vogels broth), growth inhibition photometrically 3-4 days after application, compared to untreated control
Experimental: (§1) Example B2: Botryotinia fuckeliana (Botrytis cinerea)/Liquid Culture (Gray Mould) Conidia of the fungus from cryogenic storage are directly mixed into a nutrient broth (Vogels broth). After placing a DMSO solution of test compound into a microtiter plate (96-well format), the nutrient broth containing the fungal spores is added. The test plates are incubated at 24° C. and the inhibition of growth is determined photometrically 3-4 days after application.

[2] = tested on: Glomerella lagenarium (Colletotrichum lagenarium); test: Glomerella lagenarium (Colletotrichum lagenarium) / liquid culture (anthracnose); format: cell-based; conditions: Colletotrichum orbiculare, liquid culture (potato dextrose broth), growth inhibition photometrically 3-4 days after application, compared to untreated control
Experimental: as §1, with “B3: Glomerella lagenarium (Colletotrichum lagenarium)/Liquid” for “B2: Botryotinia fuckeliana (Botrytis cinerea)/Liquid”, “(Anthracnose)” for “(Gray Mould)”, “(potato dextrose” for “(Vogels”, “measured” for “determined”

[3] = tested on: Mycosphaerella graminicola (Septoria tritici); test: Mycosphaerella graminicola (Septoria tritici) / liquid culture (Septoria blotch); format: cell-based; conditions: Zymoseptoria tritici, liquid culture (potato dextrose broth), growth inhibition photometrically 4-5 days after application, compared to untreated control
Experimental: as §1, with “B15: Mycosphaerella graminicola (Septoria tritici/Liquid” for “B2: Botryotinia fuckeliana (Botrytis cinerea)/Liquid”, “(Septoria Blotch)” for “(Gray Mould)”, “(potato dextrose” for “(Vogels”, “4-5” for “3-4”

Sclerotinia sclerotiorum = Sclerotinia sclerotiorum / liquid culture (cottony rot); format: cell-based; conditions: liquid culture (potato dextrose broth), growth inhibition photometrically 3-4 days after application, compared to untreated control
Experimental: Example B14: Sclerotinia sclerotiorum/Liquid Culture (Cottony Rot) Mycelia fragments of a newly grown liquid culture of the fungus are directly mixed into a nutrient broth (potato dextrose broth). After placing a DMSO solution of test compound into a microtiter plate (96-well format) the nutrient broth containing the fungal material is added. The test plates are incubated at 24° C. and the inhibition of growth is determined photometrically 3-4 days after application.

Alternaria solani = Alternaria solani / tomato / leaf disc (early blight); format: in vivo; conditions: foliar, tomato leaf disks cv. Baby, inoculated 2 days after application, assessed 5-7 days after application, compared to untreated control
Experimental: Example B1: Alternaria solani/Tomato/Leaf Disc (Early Blight) Tomato leaf disks cv. Baby are placed on agar in multiwell plates (24-well format) and sprayed with the formulated test compound diluted in water. The leaf disks are inoculated with a spore suspension of the fungus 2 days after application. The inoculated leaf disks are incubated at 23° C./21° C.

[4] = tested on: Monographella nivalis (Microdochium nivale); test: Monographella nivalis (Microdochium nivale) / liquid culture (foot rot cereals); format: cell-based; conditions: liquid culture (potato dextrose broth), growth inhibition photometrically 4-5 days after application, compared to untreated control
Experimental: as §1, with “B9: Monographella nivalis (Microdochium nivale)/Liquid” for “B2: Botryotinia fuckeliana (Botrytis cinerea)/Liquid”, “(Foot Rot Cereals)” for “(Gray Mould)”, “(potato dextrose” for “(Vogels”, “4-5” for “3-4”

Fusarium culmorum = test: microbe, parasite or virus in culture; format: cell-based; conditions: read-out: control of Fusarium culmorum
[5] = tested on: Phaeosphaeria nodorum (Septoria nodorum); test: Phaeosphaeria nodorum (Septoria nodorum) / wheat / leaf disc preventative (glume blotch); format: in vivo; conditions: Parastagonospora nodorum, foliar, wheat leaf segments cv. Kanzler, inoculated 2 days after application, assessed 5-7 days after application, compared to untreated control
Experimental: Example B8: Phaeosphaeria Nodorum (Septoria nodorum)/Wheat/Leaf Disc Preventative (Glume Blotch) Wheat leaf segments cv. Kanzler are placed on agar in a multiwell plate (24-well format) and sprayed with the formulated test compound diluted in water. The leaf disks are inoculated with a spore suspension of the fungus 2 days after application. The inoculated test leaf disks are incubated at 20° C. and 75% relative humidity under a light regime of 12 h light/12 h darkness in a climate cabinet and the activity of a compound is assessed as percent disease control compared to untreated when an appropriate level of disease damage appears in untreated check leaf disks (5-7 days after application).

[6] = tested on: Blumeria graminis f. sp. tritici (Erysiphe graminis f. sp. tritici); test: Blumeria graminis f. sp. tritici / wheat / leaf disc preventative (powdery mildew); format: in vivo; conditions: foliar, wheat leaf segments cv. Kanzler, inoculated 1 day after application, assessed 6-8 days after application, compared to untreated control
Experimental: Example B4: Blumeria graminis f. sp. tritici (Erysiphe graminis f. sp. tritici)/Wheat/Leaf Disc Preventative (Powdery Mildew on Wheat) Wheat leaf segments cv. Kanzler are placed on agar in a multiwell plate (24-well format) and sprayed with the formulated test compound diluted in water. The leaf disks are inoculated by shaking powdery mildew infected plants above the test plates 1 day after application. The inoculated leaf disks are incubated at 20° C. and 60% relative humidity under a light regime of 24 h darkness followed by 12 h light/12 h darkness in a climate chamber and the activity of a compound is assessed as percent disease control compared to untreated when an appropriate level of disease damage appears on untreated check leaf segments (6-8 days after application).

[7] = tested on: Mycosphaerella arachidis (Cercospora arachidicola); test: Mycosphaerella arachidis (Cercospora arachidicola) / liquid culture (early leaf spot); format: cell-based; conditions: liquid culture (potato dextrose broth), growth inhibition photometrically 4-5 days after application, compared to untreated control
Experimental: as §1, with “B10: Mycosphaerella arachidis (Cercospora arachidicola)/Liquid” for “B2: Botryotinia fuckeliana (Botrytis cinerea)/Liquid”, “(Early Leaf Spot)” for “(Gray Mould)”, “(potato dextrose broth)” for “(Vogels broth).”, “4-5” for “3-4”

Cc1c([C@H]2CN(C(=O)c3cc(-c4ccc(F)cc4F)on3)Cc3ccsc32)cnn1C [Compound P-3, [5-(2,4-difluorophenyl)isoxazol-3-yl]-[(7S)-7-(1,5-dimethylpyrazol-4-yl)-6,7-dihydro-4H-thieno[3,2-c]pyridin-5-yl]methanone]
≥ 80%: pest or weed control at 200 ppm (Pyrenophora teres) | inhibition of growth at 20 ppm [1] | inhibition of growth at 20 ppm [2] | inhibition of growth at 20 ppm [3] | inhibition of growth at 20 ppm (Sclerotinia sclerotiorum) | pest or weed control at 200 ppm (Alternaria solani) | inhibition of growth at 20 ppm [4] | inhibition of growth at 20 ppm (Fusarium culmorum) | pest or weed control at 200 ppm [5] | pest or weed control at 200 ppm [6]

C[C@H]1c2sccc2[C@@](C)(c2cnn(C)c2)CN1C(=O)c1nnc(-c2ccc(F)cc2F)s1 [Compound P-6, [5-(2,4-difluorophenyl)-1,3,4-thiadiazol-2-yl]-[(4R,7S)-4,7-dimethyl-4-(1-methylpyrazol-4-yl)-5,7-dihydrothieno[2,3-c]pyridin-6-yl]methanone]
≥ 80%: pest or weed control at 200 ppm (Pyrenophora teres) | inhibition of growth at 20 ppm [1] | inhibition of growth at 20 ppm [2] | inhibition of growth at 20 ppm [3] | inhibition of growth at 20 ppm [7] | inhibition of growth at 20 ppm (Sclerotinia sclerotiorum) | pest or weed control at 200 ppm (Alternaria solani) | inhibition of growth at 20 ppm [4] | inhibition of growth at 20 ppm (Fusarium culmorum) | pest or weed control at 200 ppm [5] | pest or weed control at 200 ppm [6]

C[C@H]1c2sccc2[C@@H](c2cnn(C)c2)CN1C(=O)c1cc(-c2ccc(F)cc2F)on1 (racemic) [Compound P-14, [5-(2,4-difluorophenyl)isoxazol-3-yl]-[rac-(4R,7S)-7-methyl-4-(1-methylpyrazol-4-yl)-5,7-dihydro-4H-thieno[2,3-c]pyridin-6-yl]methanone]
≥ 80%: pest or weed control at 200 ppm (Pyrenophora teres) | inhibition of growth at 20 ppm [1] | inhibition of growth at 20 ppm [2] | inhibition of growth at 20 ppm [3] | inhibition of growth at 20 ppm [7] | inhibition of growth at 20 ppm (Sclerotinia sclerotiorum) | pest or weed control at 200 ppm (Alternaria solani) | inhibition of growth at 20 ppm (Fusarium culmorum) | pest or weed control at 200 ppm [5] | pest or weed control at 200 ppm [6]

Cc1c(C2CN(C(=O)c3cc(-c4ccc(F)cc4F)on3)Cc3sccc32)cnn1C (stereo not drawn) [Compound P-32, [5-(2,4-difluorophenyl)isoxazol-3-yl]-[4-(1,5-dimethylpyrazol-4-yl)-5,7-dihydro-4H-thieno[2,3-c]pyridin-6-yl]methanone]
≥ 80%: pest or weed control at 200 ppm (Pyrenophora teres) | inhibition of growth at 20 ppm [1] | inhibition of growth at 20 ppm [2] | inhibition of growth at 20 ppm [3] | inhibition of growth at 20 ppm [7] | inhibition of growth at 20 ppm (Sclerotinia sclerotiorum) | pest or weed control at 200 ppm (Alternaria solani) | inhibition of growth at 20 ppm [4] | inhibition of growth at 20 ppm (Fusarium culmorum) | pest or weed control at 200 ppm [5] | pest or weed control at 200 ppm [6]

Cc1c(C2CN(C(=O)c3cc(-c4ccc(F)cc4F)on3)Cc3ccsc32)cnn1C (stereo not drawn) [Compound P-33, [5-(2,4-difluorophenyl)isoxazol-3-yl]-[7-(1,5-dimethylpyrazol-4-yl)-6,7-dihydro-4H-thieno[3,2-c]pyridin-5-yl]methanone]
≥ 80%: pest or weed control at 200 ppm (Pyrenophora teres) | inhibition of growth at 20 ppm [1] | inhibition of growth at 20 ppm [2] | inhibition of growth at 20 ppm [3] | inhibition of growth at 20 ppm [7] | inhibition of growth at 20 ppm (Sclerotinia sclerotiorum) | pest or weed control at 200 ppm (Alternaria solani) | inhibition of growth at 20 ppm [4] | inhibition of growth at 20 ppm (Fusarium culmorum) | pest or weed control at 200 ppm [5] | pest or weed control at 200 ppm [6]

Cc1c(C2CN(C(=O)c3nnc(-c4ccc(F)cc4F)s3)Cc3sccc32)cnn1C (stereo not drawn) [Compound P-25, [5-(2,4-difluorophenyl)-1,3,4-thiadiazol-2-yl]-[4-(1,5-dimethylpyrazol-4-yl)-5,7-dihydro-4H-thieno[2,3-c]pyridin-6-yl]methanone]
≥ 80%: pest or weed control at 200 ppm (Pyrenophora teres) | inhibition of growth at 20 ppm [1] | inhibition of growth at 20 ppm [2] | inhibition of growth at 20 ppm [3] | inhibition of growth at 20 ppm (Sclerotinia sclerotiorum) | pest or weed control at 200 ppm (Alternaria solani) | inhibition of growth at 20 ppm [4] | inhibition of growth at 20 ppm (Fusarium culmorum) | pest or weed control at 200 ppm [5] | pest or weed control at 200 ppm [6]

Cn1cc(C2(C)CN(C(=O)c3nnc(-c4ccc(F)cc4F)s3)Cc3sccc32)cn1 (stereo not drawn) [Compound P-18, methylpyrazol-4-yl)-5,7-[5-(2,4-difluorophenyl)-1,3,4-thiadiazol-2-yl]-[4-methyl-4-(1-dihydrothieno[2,3-c]pyridin-6-yl]methanone]
≥ 80%: pest or weed control at 200 ppm (Pyrenophora teres) | inhibition of growth at 20 ppm [1] | inhibition of growth at 20 ppm [2] | inhibition of growth at 20 ppm [3] | inhibition of growth at 20 ppm [7] | inhibition of growth at 20 ppm (Sclerotinia sclerotiorum) | pest or weed control at 200 ppm (Alternaria solani) | inhibition of growth at 20 ppm (Fusarium culmorum) | pest or weed control at 200 ppm [5] | pest or weed control at 200 ppm [6]

C[C@H]1c2sccc2[C@@H](c2cnn(C)c2)CN1C(=O)c1nnc(-c2ccc(F)cc2F)s1 [Compound P-2, [5-(2,4-difluorophenyl)-1,3,4-thiadiazol-2-yl]-[(4R,7S)-7-methyl-4-(1-methylpyrazol-4-yl)-5,7-dihydro-4H-thieno[2,3-c]pyridin-6-yl]methanone]
≥ 80%: pest or weed control at 200 ppm (Pyrenophora teres) | inhibition of growth at 20 ppm [1] | inhibition of growth at 20 ppm [2] | inhibition of growth at 20 ppm [3] | inhibition of growth at 20 ppm [7] | inhibition of growth at 20 ppm (Sclerotinia sclerotiorum) | pest or weed control at 200 ppm (Alternaria solani) | inhibition of growth at 20 ppm [4] | inhibition of growth at 20 ppm (Fusarium culmorum) | pest or weed control at 200 ppm [5] | pest or weed control at 200 ppm [6]

Source: patent US20250049035A1, “MICROBIOCIDAL BICYCLE HETEROCYCLIC DERIVATIVES” (SYNGENTA CROP PROTECTION AG, priority 2021, published 2025)
